{"source": "patent US20190055231A1", "about": "“BACE1 INHIBITORS” (Hoffmann-La Roche Inc., priority 2016, published 2019)", "key": {"[1]": {"test_system": "Aβ40 in brain of wild-type mice", "assay": "Mouse acute in vivo model (inhibition of Aβ40 in brain of wild-type mice)", "details": "4 h post dose", "description": "Mouse Acute In Vivo Model (Inhibition of Aβ40 in Brain of Wild-Type Mice)\nSingle Dose Efficacy in Mice\nThe mouse single dose efficacy was measured in brain homogenate from C57Bl/6J wildtype mice after DEA extraction as described in H. Hilpert et al., J. Med. Chem. 2013, 56, 3980-3995 (dx.doi.org/10.1021/jm400225m).\n(§1) Aβ 40 concentration was determined after solid phase extraction as described above and following a modified protocol from Perkin-Elmer with a commercially available antibody against the N-terminal part of rat Aβ (252Q6, Invitrogen cat. No. AMB0062) and an in-house C-terminal specific anti-Aβ40 antibody (BAP-24, Brockhaus M. et al., J. Neuroreport, 1998, 9:1481-1486) bound to acceptor beads (PerkinElmer, Cat. 6772002). 20 μl analyte per well (reconstituted extracts or standard) were loaded to a White Optiplate-96 (Perkin-Elmer, Cat#6005290). Then, a mixture of biotinylated BAP24 antibody (1:2000 diluted at approximately 1 nM final concentration) and antibody 252Q6 bound to AlphaLISA acceptor beads (Perkin-Elmer cat. No. 6772002 (1:100 diluted, 10 ug/mL final concentration) in 1× AlphaLISA buffer (Perkin-Elmer, AL000F) was added. After 1 hour room temperature incubation in the dark, 20 uL of a streptavidin coated donor beads dilution (40 μg/mL) were added and incubated for 30 minutes in the dark. Light emission at 615 nm was recorded using an EnVision AlphaScreen Reader (Perkin-Elmer). Levels of Aβ40 were calculated as percentage of the baseline samples from non-treated animals.\nAβ40 lowering was determined after oral administration in wild-type mice (C57Bl/6J mice, n=3-4) 4 h post dosing. Wild-type mice were used as they have a normal physiological level of APP expression and are thus expected to provide a better physiological model for Aβ-peptide production than APP-transgenic organisms. In vivo efficacy is a key factor for appropriate drug candidates, being more relevant than in vitro activities."}, "[2]": {"assay": "Cynomolgus monkey single dose PK study", "format": "in vivo, Cynomolgus monkey (Macacaca fascicularis)", "text": "Cynomolgus Monkey (Macacaca fascicularis) Single Dose PK Study and Plasma Aβ40 Determination\nBlood and plasma collection will always be performed in the treatment cage. The animal care keeper grabs either one arm or one leg through the bars. The hairs are shaved for better visibility of the vein. The blood vessel is squeezed, the vein is punctured by using a butterfly and blood is taken. Once enough blood has been withdrawn a cotton swab is placed over the injection site and the needle is gently removed. Bleeding is stopped by pressing a cotton swab on the wound. Plasma samples were taken between 5 min and 48 h.\nPlasma Preparation Cynomolgus\n(§2) Blood is transferred into a labeled EDTA-K2 Eppendorf tube and the sample is mixed by inverting the tubes several times. Blood is stored at −20° C."}, "[3]": {"test_system": "CSF Aβ40", "assay": "Rat single dose study, inhibition of CSF Aβ40 in Wistar rats", "format": "in vivo", "details": "rat CSF Aβ40, 1 mg/kg, 4 h post dose", "description": "(§3) Rat Single Dose PK Study (Inhibition of CSF Aβ40 in Wistar Rats)\n(§4) The rat single dose PK study was described in H. Hilpert et al., J. Med. Chem. 2013, 56, 3980-3995 (dx.doi.org/10.1021/jm400225m) with slight modifications.\nas §1, with “determined without” for “determined after”, “extraction” for “extraction as described above and”, “20 μL” for “20 uL”, “of Aβ 40” for “of Aβ40”"}, "[4]": {"assay": "Rat single dose PK study", "format": "in vivo", "details": "1 mg/kg; for concentration at 4 h: oral", "description": "as §3, §4, §2"}, "[5]": {"molecular_target": "Human P-gp (Homo sapiens, UniProt P08183)", "sequence (P08183 whole entry)": "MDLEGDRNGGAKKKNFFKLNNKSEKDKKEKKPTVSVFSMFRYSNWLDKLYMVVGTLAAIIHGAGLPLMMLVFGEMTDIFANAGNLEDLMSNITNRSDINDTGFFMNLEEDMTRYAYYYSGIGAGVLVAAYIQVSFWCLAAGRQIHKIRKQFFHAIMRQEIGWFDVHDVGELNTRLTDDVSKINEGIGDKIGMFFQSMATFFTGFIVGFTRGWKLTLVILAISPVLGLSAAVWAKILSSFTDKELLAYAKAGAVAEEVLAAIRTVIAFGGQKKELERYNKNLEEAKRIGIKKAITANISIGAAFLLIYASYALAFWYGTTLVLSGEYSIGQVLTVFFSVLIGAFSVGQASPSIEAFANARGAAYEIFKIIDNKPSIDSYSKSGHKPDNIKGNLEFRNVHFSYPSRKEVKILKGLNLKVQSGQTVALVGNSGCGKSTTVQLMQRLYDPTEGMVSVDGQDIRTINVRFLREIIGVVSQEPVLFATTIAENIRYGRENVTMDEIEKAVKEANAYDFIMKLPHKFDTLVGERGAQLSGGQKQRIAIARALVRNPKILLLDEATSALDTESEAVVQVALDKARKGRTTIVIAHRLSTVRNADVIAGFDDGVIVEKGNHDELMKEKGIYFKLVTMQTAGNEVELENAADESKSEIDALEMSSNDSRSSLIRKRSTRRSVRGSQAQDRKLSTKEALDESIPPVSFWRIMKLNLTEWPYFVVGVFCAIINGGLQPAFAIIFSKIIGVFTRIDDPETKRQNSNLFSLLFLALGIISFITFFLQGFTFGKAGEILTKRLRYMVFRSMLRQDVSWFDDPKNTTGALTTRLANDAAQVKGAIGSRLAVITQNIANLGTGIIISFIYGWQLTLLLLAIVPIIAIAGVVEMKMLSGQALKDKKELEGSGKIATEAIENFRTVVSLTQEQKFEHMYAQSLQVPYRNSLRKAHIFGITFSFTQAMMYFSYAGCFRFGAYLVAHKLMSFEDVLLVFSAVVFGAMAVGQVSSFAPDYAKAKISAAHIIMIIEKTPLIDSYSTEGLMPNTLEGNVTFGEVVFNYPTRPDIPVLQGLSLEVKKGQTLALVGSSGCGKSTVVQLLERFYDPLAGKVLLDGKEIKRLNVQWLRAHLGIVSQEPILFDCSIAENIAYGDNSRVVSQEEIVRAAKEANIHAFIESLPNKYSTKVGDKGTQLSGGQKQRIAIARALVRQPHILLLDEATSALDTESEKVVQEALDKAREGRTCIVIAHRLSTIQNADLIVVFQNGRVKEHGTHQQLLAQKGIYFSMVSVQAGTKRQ", "assay": "P-gp transport assay (human)", "format": "in vitro ADME", "details": "efflux ratio", "text": "(§5) P-Gp Transport Assay (Human and Mouse) (P-Gp Assay)\n(§6) In the assay of the P-gp efflux ratio ER as described hereinabove, a compound with ER<2.5 is regarded most suitable. In addition, compounds with low hERG channel binding are suitable as well."}, "[6]": {"molecular_target": "Mouse P-gp (Mus musculus, UniProt P21447)", "sequence (P21447 whole entry)": "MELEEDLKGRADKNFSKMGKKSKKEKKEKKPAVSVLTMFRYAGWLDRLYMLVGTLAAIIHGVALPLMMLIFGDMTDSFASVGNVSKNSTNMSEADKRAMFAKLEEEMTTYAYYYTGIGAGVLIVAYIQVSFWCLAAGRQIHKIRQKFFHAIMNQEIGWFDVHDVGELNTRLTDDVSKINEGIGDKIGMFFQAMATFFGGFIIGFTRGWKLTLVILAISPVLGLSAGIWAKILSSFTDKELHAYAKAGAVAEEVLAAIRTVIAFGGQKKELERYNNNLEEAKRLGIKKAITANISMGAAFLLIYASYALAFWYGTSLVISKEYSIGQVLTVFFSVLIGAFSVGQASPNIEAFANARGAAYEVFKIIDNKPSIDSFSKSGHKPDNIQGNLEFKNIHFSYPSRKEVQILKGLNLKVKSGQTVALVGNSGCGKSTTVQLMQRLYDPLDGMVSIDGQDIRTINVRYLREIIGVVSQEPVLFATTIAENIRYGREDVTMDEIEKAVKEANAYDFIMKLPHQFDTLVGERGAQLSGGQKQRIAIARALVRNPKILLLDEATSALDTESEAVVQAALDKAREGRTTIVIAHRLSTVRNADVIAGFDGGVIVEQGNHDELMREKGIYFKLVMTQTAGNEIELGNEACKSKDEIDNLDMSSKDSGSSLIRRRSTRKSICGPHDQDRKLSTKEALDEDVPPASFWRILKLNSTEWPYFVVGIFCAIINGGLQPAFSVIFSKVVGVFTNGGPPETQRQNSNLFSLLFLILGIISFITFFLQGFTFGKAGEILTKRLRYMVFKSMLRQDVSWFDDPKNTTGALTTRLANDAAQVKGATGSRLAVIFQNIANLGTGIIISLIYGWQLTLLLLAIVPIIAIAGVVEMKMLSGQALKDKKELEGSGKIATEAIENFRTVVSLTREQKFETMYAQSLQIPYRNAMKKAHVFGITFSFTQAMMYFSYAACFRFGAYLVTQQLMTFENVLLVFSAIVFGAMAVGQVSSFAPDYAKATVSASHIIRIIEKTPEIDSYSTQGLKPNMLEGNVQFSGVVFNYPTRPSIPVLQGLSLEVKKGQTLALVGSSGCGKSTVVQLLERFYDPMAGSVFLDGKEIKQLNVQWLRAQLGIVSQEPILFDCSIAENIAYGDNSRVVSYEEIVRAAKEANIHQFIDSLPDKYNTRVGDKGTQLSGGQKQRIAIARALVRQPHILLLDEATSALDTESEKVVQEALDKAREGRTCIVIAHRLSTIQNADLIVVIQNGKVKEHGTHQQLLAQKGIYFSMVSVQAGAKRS", "assay": "P-gp transport assay (mouse)", "format": "in vitro ADME", "details": "efflux ratio", "text": "as §5, §6"}, "[7]": {"molecular_target": "hERG channel (Homo sapiens, UniProt Q12809)", "sequence (Q12809 whole entry)": "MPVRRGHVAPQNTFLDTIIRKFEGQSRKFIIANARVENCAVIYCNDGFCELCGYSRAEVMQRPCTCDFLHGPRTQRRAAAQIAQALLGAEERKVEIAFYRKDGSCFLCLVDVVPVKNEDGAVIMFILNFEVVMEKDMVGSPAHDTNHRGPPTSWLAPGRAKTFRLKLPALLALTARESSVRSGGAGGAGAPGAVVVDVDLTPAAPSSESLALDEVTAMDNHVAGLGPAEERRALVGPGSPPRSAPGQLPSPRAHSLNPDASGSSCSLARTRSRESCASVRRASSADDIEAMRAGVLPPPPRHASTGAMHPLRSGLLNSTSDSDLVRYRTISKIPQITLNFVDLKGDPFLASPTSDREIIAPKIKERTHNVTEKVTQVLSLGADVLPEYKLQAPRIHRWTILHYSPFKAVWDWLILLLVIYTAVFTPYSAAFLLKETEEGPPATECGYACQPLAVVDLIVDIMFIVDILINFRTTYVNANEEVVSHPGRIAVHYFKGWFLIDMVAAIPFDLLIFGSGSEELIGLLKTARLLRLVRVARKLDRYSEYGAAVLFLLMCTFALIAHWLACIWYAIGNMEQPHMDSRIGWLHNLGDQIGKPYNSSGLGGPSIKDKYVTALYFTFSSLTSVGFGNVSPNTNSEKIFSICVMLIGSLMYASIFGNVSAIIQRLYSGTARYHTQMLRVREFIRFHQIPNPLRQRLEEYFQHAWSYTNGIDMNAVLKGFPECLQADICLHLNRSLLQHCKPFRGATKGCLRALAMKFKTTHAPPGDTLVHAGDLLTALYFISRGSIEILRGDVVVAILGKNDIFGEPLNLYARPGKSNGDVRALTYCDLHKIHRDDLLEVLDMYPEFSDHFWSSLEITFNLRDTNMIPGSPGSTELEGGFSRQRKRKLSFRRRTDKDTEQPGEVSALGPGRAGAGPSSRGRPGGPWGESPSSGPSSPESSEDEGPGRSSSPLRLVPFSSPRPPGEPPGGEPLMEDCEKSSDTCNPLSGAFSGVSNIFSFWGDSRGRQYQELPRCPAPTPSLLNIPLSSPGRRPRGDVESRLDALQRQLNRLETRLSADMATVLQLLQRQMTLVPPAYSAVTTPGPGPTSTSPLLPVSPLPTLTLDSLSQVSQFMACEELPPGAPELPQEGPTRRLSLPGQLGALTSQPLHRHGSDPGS", "assay": "hERG IC20 assay", "format": "cell-based", "text": "The methods to determine the hERG IC20 values was described in Industrializing electrophysiology: HT automated patch clamp on SyncroPatch® 96 using instant frozen cells. Polonchuk L., Methods Mol Biol. 2014; 1183:81-92. (doi: 10.1007/978-1-4939-1096-0_5.) PMID:25023303\nQT prolongation is a cardiovascular risk caused by drug candidates which inhibit the hERG channel (human ether a go-go). A sufficient safety margin between the hERG IC20 value and the free plasma concentration necessary to achieve the envisaged thereapeutic effects is desired (ICH. The nonclinical evaluation of the potential for delayed ventricular repolarization (QT interval prolongation) by human pharmaceuticals (S7B), issued as CPMP/ICH/423/02, adopted by CHMP in May 2005 (http://www.ich.org/cache/compo/276-254-1.html; Redfern W S, Carlsson L, Davis A S, Lynch W G, MacKenzie I, Palethorpe S, Siegl P K, Strang I, Sullivan A T, Wallis R, Camm A J, Hammond T G. Relationships between preclinical cardiac electrophysiology, clinical QT interval prolongation and torsade de pointes for a broad range of drugs: evidence for a provisional safety margin in drug development. Cardiovasc Res. 2003 Apr. 1; 58(1):32-45.)). Reducing the activity against efflux transporters expressed at the blood-brain-barrier such as P-glycoprotein P-gp, might result in reduction of the free plasma concentration by optimizing brain penetration."}}, "note": "Read-outs that look alike come from different tables or passages of the source.", "data": [{"smiles": "C[C@]1(c2nc(NC(=O)c3ccc(C#N)cn3)ccc2F)N=C(N)O[C@H](C(F)(F)F)[C@@H]1F", "note": "[Comparator 6]", "values": [{"measurement": "Brain Aβ-lowering 3 mg/kg", "setting": "[1]; single p.o. dose 3 mg/kg", "result": 86, "unit": "%"}, {"measurement": "Brain Aβ-lowering 10 mg/kg", "setting": "[1]; single p.o. dose 10 mg/kg", "result": 94, "unit": "%"}, {"measurement": "lower exposure compared to example 1", "setting": "[2]", "result": 5, "unit": "fold"}, {"measurement": "clearance", "setting": "[2]; plasma", "result": 9.7, "unit": "mL/min/kg"}, {"measurement": "bioavailability", "setting": "[2]; plasma, po, read-out: Oral Bioavailability F", "result": 63, "unit": "%"}, {"measurement": "half-life", "setting": "[2]; plasma, po, read-out: t1/2 p.o. (converted)", "result": 11, "unit": "h"}, {"measurement": "CSF Aβ-lowering 1 mg/kg at 4 h", "setting": "[3]", "result": 77, "unit": "%"}, {"measurement": "Plasma concentration at 4 h, free", "setting": "[4]; 4 h, free unbound", "result": 36.3, "unit": "nM"}, {"measurement": "Plasma concentration at 4 h", "setting": "[4]; 4 h, total", "result": 193, "unit": "nM"}, {"measurement": "concentration at 4 h", "setting": "[4]; Wistar, plasma, 4 h, free unbound, read-out: Plasma concentration at 4 h, free", "result": 36.3, "unit": "nM"}, {"measurement": "concentration at 4 h", "setting": "[4]; Wistar, plasma, 4 h, free, read-out: Plasma concentration at 4 h, free", "result": 85, "unit": "ng/mL"}, {"measurement": "concentration at 4 h", "setting": "[4]; Wistar, plasma, 4 h, total, read-out: Plasma concentration at 4 h", "result": 85, "unit": "ng/mL"}, {"measurement": "bioavailability", "setting": "[4]; Wistar, plasma, po, read-out: Oral Bioavailability F", "result": 19, "unit": "%"}, {"measurement": "Human P-gp ER", "setting": "[5]", "result": 1.1}, {"measurement": "Mouse P-gp ER", "setting": "[6]", "result": 2.4}, {"measurement": "higher affinity to hERG than example 1", "setting": "[7]", "result": 6, "unit": "fold"}, {"measurement": "IC20", "setting": "[7]; human, hERG IC20 assay", "result": 400, "unit": "nM"}]}]}
